Measurements from patent US5608084A, “Lactones with antioxidising and hypolipidaemic activity useful in the therapy of the atherosclerosis” (priority 1994, dated 1997).
Where two headings read alike, the source gives them in different places.

Legend:
[1] = system: LDL; assay: Antioxidant activity: latency period of copper-induced LDL oxidation (TBARS method); type: biochemical, human; conditions: for Latency period: LDL oxidized with 5 μM cupric sulfate at 37° C.; for concentration giving a comparable prolongation of the latency period, relative to probucol (times lower): compared with probucol; for antioxidant activity compared with probucol: latency period
From the text: The determination of the melting point has been carried out by means of a capillary melting point apparatus Electrothermal, without any correction. The I.R. spectrum has been obtained by means of a Perkin-Elmer rood. 963/G spectrophotometer generally, when not otherwise specified, preparing the specimen in potassium bromide and recording the spectrum between […]. The ^1 H-NMR spectrum has been recorded at room temperature with a 200 MHz Varian Gemini spectrometer, in the solvents cited, by using tetramethylsilane as internal standard; the resonances of the signals have been expressed in p.p.m.. The ^13 C-NMR spectrum has been carried out at 50.3 MHz with a Varian Gemini 200 spectrometer by using tetramethylsilane as internal standard and as solvents those described in the experimental section. The mass spectrum has been recorded by using a VG 7070E mass spectrometer, at a 70 eV ionization voltage and with a 6 Kvolt acceleration voltage. The chromatographies on silica gel have been carried out by using 60 F254 silica gel ([…]--Merck) with the eluents cited in the examples, according to the method described by Clark Still W. et al. in J. Org. Chem., 43, 2923, (1978). The pharmacological activity of the lactones of formula I object of the present invention has been determined by means of a series of in vitro tests considered predictive of the antioxidant and hypolipidaemic properties. The antioxidant activity has been evaluated through the capability of some lactones of formula I to prevent and/or delay the oxidative modification of the lipoproteins (LDL), caused by a chemical method by incubating native LDL with cupric ions, according to the method described by Steinbrecher U. P. in J. Biol. Chem., 262, 3603-3608, (1987). The evaluation of the oxidation degree of the LDL through the monitoring of the concentration of aldehydes derived from the degradation of the lipidic peroxides and the observation of the modifications of the B-100 apolipoprotein represent the used experimental approach. The antioxidant activity of the lactones has been expressed in terms of duration of the latency period that represents a parameter of the resistance to the oxidation of the LDL. The LDL have been isolated from the human plasma obtained from blood collected, in the presence of EDTA, from healty volunteers fasting from 8 hours according to the method described by Havel H. in J. Clin. Invest., 34, 1345-1353, (1955). The solution, dialyzed in Visking-Serva dialysis tubes at 4° C. for 72 hours in phosphate buffer (PBS) added with EDTA (0.24 mM), has been filtered through a membrane with 0.45μ porosity (Millex HV Filters) and the proteic concentration has been determined according to the method described by Lowry O. et al. in J. Biol. Chem., 193, 265-275, (1951). The solution has been diluted with PBS-EDTA at a concentration of 500 μg protein/ml and the obtained LDL have been incubated at 42° C. for 45 minutes in presence of the lactones solubilized in ethanol (1.7 μl/ml LDL). At the end of the incubation the solutions have been placed on ice for 45 minutes and dialyzed at 4° C. for 36 hours in PBS. The oxidation of the LDL has been carried out with 5 μM cupric sulfate at 37° C. and stopped at the experimental times by cooling at 4° C. and adding 0.24 mM of EDTA. The solutions of LDL have been kept at 4° C. and sheltered from light during the experimental procedure. The oxidation degree of the LDL has been checked by spectrophotometric determination (λ=535 nm--Perkin Elmer spectrophotometer mod. Lambda 1) of the content of the aldehydes of degradation reactive to the thiobarbituric acid using as standard malondialdehyde (MDA), according to the TBARS method, described in Methods in Enzymology, vol. 52, (1978).
FIGS. 1A-1C show the results of spectrophotometric readings expressed as ng of MDA/mg LDL protein. […]

[2] = system: HepG2; assay: Incorporation of 14C-acetate in the lipidic classes in HepG2 cells (hypolipidaemic activity); type: cell-based, human; conditions: for Incorporation of 14C-acetate: Cholesterol / Incorporation of 14C-acetate: Esters of Cholesterol / Incorporation of 14C-acetate: Fatty acids / Incorporation of 14C-acetate: Phospholipids / Incorporation of 14C-acetate: Triglycerides: per culture plate; for inhibition at 1 µM / inhibition at 10 µM: Homo sapiens, HepG2; for interference with the synthesis of cholesterol: compared with gemfibrozil and probucol; for influence on the synthesis of the fatty acids and of the phospholipids: compared with probucol and gemfibrozil; for activity as regards the synthesis of the esters of the cholesterol: summary of Table 4
Procedure: The hypolipidaemic activity of some lactones of general formula I has been evaluated in vitro by testing their influence on the synthesis of the cell lipids like cholesterol, fatty acids, triglycerides, phospholipids and esters of the cholesterol, described by Barnhard J. W. in Amer. J. Cardiol., 62, 52B-56B, (1988).
The synthesis of the lipids has been studied by incubating cells coming from a human hepatocarcinoma (HepG2-American Type Culture Collection) in presence of ^14 C-acetate (Amersham) and by measuring the incorporation of the radioactive precursor in the main lipidic classes by means of chromatographic separation on silica gel (Merck F254), according to the method described by Skipski V. P. et al. in Biochem. Biophys. Acta, 106, 386-396, (1965) and by means of scintillographic dosage with β-counter Beckman scintillator, according to the method reported by Gherardi E. and Calandra S. in Lipids, 15, 108-112, (1980).
The data reported in tables 4 and 5 refer to the incorporation of ^14 C-acetate in the various lipidic classes, expressed as radioactivity in count per minute (cpm) for culture plate, for some lactones, in comparison with the probucol and the gemfibrozil, used as positive controls and with the solvent ethanol, used as negative control.
The percents in brackets express the lowering of the ^14 C-acetate in the various lipidic classes referred to the control, i.e. to the physiological solution. […] The confluence cells have been exposed to the products tested for 24 hours; at the end of the incubation the monolayer has been solubilized and the optical density of the lysate at λ260 nm has been measured. The value of the absorbance is direct function of the amount of the macromolecules present and therefore indirectly of the number of the cells.

[3] = 1 μM, read-out: Incorporation of 14C-acetate: Cholesterol, percent referred to physiological solution
[4] = 1 μM, read-out: Incorporation of 14C-acetate: Esters of Cholesterol, percent referred to physiological solution
[5] = 1 μM, read-out: Incorporation of 14C-acetate: Fatty acids, percent referred to physiological solution
[6] = 1 μM, read-out: Incorporation of 14C-acetate: Phospholipids, percent referred to physiological solution
[7] = 1 μM, read-out: Incorporation of 14C-acetate: Triglycerides, percent referred to physiological solution
[8] = 10 μM, read-out: Incorporation of 14C-acetate: Cholesterol, percent referred to physiological solution
[9] = 10 μM, read-out: Incorporation of 14C-acetate: Esters of Cholesterol, percent referred to physiological solution
[10] = 10 μM, read-out: Incorporation of 14C-acetate: Fatty acids, percent referred to physiological solution
[11] = 10 μM, read-out: Incorporation of 14C-acetate: Phospholipids, percent referred to physiological solution
[12] = 10 μM, read-out: Incorporation of 14C-acetate: Triglycerides, percent referred to physiological solution

Structure (SMILES) | Latency period ([1]; 1 μM) [min] | Latency period ([1]; 5 μM) [min] | Latency period ([1]; 10 μM) [min] | concentration giving a comparable prolongation of the latency period, relative to probucol (times lower) [1] [times] | antioxidant activity compared with probucol [1] | influence on the synthesis of the triglycerides [2] | Incorporation of 14C-acetate: Cholesterol ([2]; 1 μM) [cpm] | Incorporation of 14C-acetate: Esters of Cholesterol ([2]; 1 μM) [cpm] | Incorporation of 14C-acetate: Fatty acids ([2]; 1 μM) [cpm] | Incorporation of 14C-acetate: Phospholipids ([2]; 1 μM) [cpm] | Incorporation of 14C-acetate: Triglycerides ([2]; 1 μM) [cpm] | Incorporation of 14C-acetate: Cholesterol ([2]; 10 μM) [cpm] | Incorporation of 14C-acetate: Esters of Cholesterol ([2]; 10 μM) [cpm] | Incorporation of 14C-acetate: Fatty acids ([2]; 10 μM) [cpm] | Incorporation of 14C-acetate: Phospholipids ([2]; 10 μM) [cpm] | Incorporation of 14C-acetate: Triglycerides ([2]; 10 μM) [cpm] | inhibition at 1 µM [2, 3] [%] | inhibition at 1 µM [2, 4] [%] | inhibition at 1 µM [2, 5] [%] | inhibition at 1 µM [2, 6] [%] | further results
CCC1CCc2c(C)c(O)c(C)c(C)c2OCCCC(C)(C)C(=O)O1 (stereo not shown) [Example 6, 9-Ethyl-14-hydroxy-6,6,13,15,16-pentamethyl-2,8-dioxabicyclo[10.4.0]hexadec-12,14,16-trien-7-one] | 95 | > 180 | > 180 | 10 | far higher than that of probucol | practically absent | 23597 | 1098 | 386 | 160997 | 107497 | 17458 | 1148 | 332 | 177323 | 110154 | 25 | 73 | 42 | 35 | inhibition at 1 µM [2, 7]: 1%; inhibition at 10 µM [2, 8]: 45%; inhibition at 10 µM [2, 9]: 72%; inhibition at 10 µM [2, 10]: 50%; inhibition at 10 µM [2, 11]: 29%; inhibition at 10 µM [2, 12]: -1%; interference with the synthesis of cholesterol [2]: comparable to that of gemfibrozil and lower than that of the probucol; influence on the synthesis of the fatty acids and of the phospholipids [2]: practically show the same influence; activity as regards the synthesis of the esters of the cholesterol [2]: 60-75%
Cc1c(C)c2c(c(C)c1O)CCC(C)OC(=O)C(C)(C)CCCO2 (stereo not shown) [Example 3, 6,6,9,13,15,16-Hexamethyl-14-hydroxy-2,8-dioxabicyclo[10.4.0]hexadec-12,14,16-trien-7-one] | 73 | 120 | > 180 | 10 | far higher than that of probucol | practically absent | 23364 | 1347 | 473 | 181053 | 109681 | 19034 | 1107 | 368 | 195274 | 104271 | 26 | 67 | 29 | 27 | inhibition at 1 µM [2, 7]: 1%; inhibition at 10 µM [2, 8]: 40%; inhibition at 10 µM [2, 9]: 73%; inhibition at 10 µM [2, 10]: 45%; inhibition at 10 µM [2, 11]: 22%; inhibition at 10 µM [2, 12]: 4%; interference with the synthesis of cholesterol [2]: comparable to that of gemfibrozil and lower than that of the probucol; influence on the synthesis of the fatty acids and of the phospholipids [2]: practically show the same influence; activity as regards the synthesis of the esters of the cholesterol [2]: 60-75%
